Laboratory results taken from patent US10945931B2, “Shaping keratin fibres using dialdehyde compounds” (The Procter & Gamble Company, priority 2015, dated 2021).

Test: Hair straightening efficacy on hair switches, expert grading after wash-and-dry cycles
Settings: 10% treatment, QSP water buffered at pH 10; flat iron 232° C., 8 passes; after 10 wash cycles; 0-10 scale (0 curly, 10 very straight)
Description: The hair straightening efficacy is tested for the crosslinking compositions described herein. Switches of low lift naturally curly hair are employed. These are shampooed with a Pantene clarifying shampoo to ensure the hair is in a clean state with no residues that could affect the end result. The switches are then rinsed. Excess water is removed from the hair by wringing out the switches. The switches are treated with a crosslinking composition; QSP water buffered at pH 10. These ingredients are mixed on a spinner plate for 30 mins. 0.5 g of crosslinking composition per 1 g hair is employed. The crosslinking composition is left on the hair for 30 minutes. After this time, the hair is blow dried and brushed. The switches are then mechanically straightened with a flat iron (at 450° F. [232° C.] with 8 passes.
The switches are then imaged. To simulate durability, the switches are then given one wash-and-dry cycle. One wash-and-dry cycle involves shampooing with a Hairtrition shampoo (Hairtrition Color Protect sulfate-free shampoo from Zotos), rinsing and then drying in a hot box. Once dry the switches are imaged again. The switches are then given 9 further wash-and-dry cycles. Once dry the switches are imaged again. An expert grader gives the images of the switches a score on a 0-10 scale. The scale is a standard scale set as curly hair having 4-5 nodes of curls is a score of 0 and very straight hair is a 10. Thus, the switches are compared to a normal state of hair. Using an expert grader is reliable because the grader is trained on measuring/scaling the configuration of the hair from straight to curly in a consistent way. Numeric data obtained by this method is averaged, and statistical analysis is conducted using JMP statistical software available from the SAS Institute at the […] confidence level. […] However, given similar straightening efficacy the dialdehyde compounds described herein have advantages over glutaraldehyde due to the lower cost of materials and increased safety profile.

| SMILES | Straightening efficacy Mean grade |
| --- | --- |
| O=CCCCC=O [Glutaraldehyde, glutaraldehyde] | 5.00 |
| O=CC(O)CO (stereo not drawn) [Glyceraldehyde] | 2.67 |
| O=CC(O)C(O)C(O)C=O (stereo not drawn) [Pentodialdose, pentodialdose] | 5.33 |
